Several values for one entry are separate records, joined by “and”; a condition that tells them apart may be missing. Identical values can stand only once.
Tests used:
G-CSF = G-CSF serum level by ELISA after PTH; format: in vivo, C57BL/6 mice
Experimental: Mice were divided into the following groups: 1) administration of saline daily for 6 days, sacrificed at day 7 (n=6). 2) administration of PTH (Bachem) daily for 6 consecutive days (80 μg per kg body weight per day, intraperitoneally), sacrificed at day 7 (n=6). 3) administration of PTH daily for 14 consecutive days, sacrificed at day 15 (n=6). 4) administration of G-CSF (Amgen Biologicals) daily for 5 consecutive days (200 μg per kg body weight per day, intraperitoneally), sacrificed at day 6 (n=6).
G-CSF and SCF serum levels were determined by ELISA (Mouse G-CSF and Mouse SCF, RayBiotech).

VEGF-A and VEGF-R1 = assay: VEGF-A/VEGF-R1 expression in infarct and borderzone after MI, PTH treatment; format: in vivo, mice
Source text: FIGS. 18A-18B: Immunohistochemical staining of VEGF-A protein in the granulation tissue at the infarct borderzone and RT-PCR analysis of VEGF-A/VEGF-R1 expression • A) Representative staining of VEGF-A protein (brown) in the granulation tissue of sham operated (left), saline (middle) and PTH treated hearts (right). VEGF-A protein is mainly localized on infiltrated cells in the granulation tissue at the borderzone. • B) Bar graphs representing the relative fold increase of VEGF-A (left) and VEGF-1 receptor (right) mRNA expression of saline treated (n=3, striped bars) and of PTH treated myocardial tissue (n=3-5, black bars) normalized to non infarcted control mice (n=3) 48 hours after myocardial infarction. *p<0.05.

infarcted left ventricle = assay: Histology: infarct size, wall thickness, infarct composition after MI, PTH treatment; format: in vivo, C57BL/6 mice; conditions: for LV-infarct size (area of necrosis and granulation tissue): day 6, % of total LV area
Experimental: (§1) Myocardial infarction was induced in male C57BL/6 mice 8-12 weeks of age by surgical occlusion of the left anterior descending artery (LAD) through a left anterolateral approach. Mice were anesthetized by intraperitoneal injection of a mixture of 100 mg/kg ketamine (Sigma Chemical Co., St. Louis, Mo.) and 5 mg/kg Xylazine (Sigma), intubated and artificially ventilated by a mouse ventilator (HUGO SACHS, March, Germany) with 200 strokes/min and 200 μl/stroke. Animal care and all experimental procedures were performed in strict accordance to the German and National Institutes of Health animal legislation guidelines and were approved by the local animal care and use committees.
(§2) After occlusion of the LAD, mice were divided into the following groups 1) subcutaneous administration of saline daily for 5 days, sacrificed at day 6 (n=10) and day 30 (n=15); 2) administration of rat PTH (1-34) daily for 5 and 14 consecutive days (80 μg/kg/d s.c., Bachem), sacrificed at day 6 (n=9) and day 30 (n=15); 3) sham operated animals sacrificed at day 30 (n=5), and not operated control animals receiving saline (n=6) sacrificed at day 6 and at day 30. All animals received BrdU ([…]) for 5 consecutive days. BrdU and cytokine treatment were started 12-24 hours after LAD occlusion.
At day 6 (n=10) and day 30 (n=10), hearts were excised. After fixation in 4% phosphate buffered formalin the hearts were cut transversally into 2 mm thick slices and embedded in paraffin. 4 μm thick sections were cut and mounted on positively charged glass slides. Standard histological procedures (hematoxilin/eosin and Masson trichrome) and immunostaining (see below) were performed.
Infarct size was determined as area of infarction (Al) correlated to the area of the left ventricle (including LV-septum) in four different slices from the base to the apex of a heart. Total infarct size was calculated by multiplication of the mean percentage value of the circular infarct area with the quotient: vertical extension of the infarct area/total ventricular extension. Wall thickness was measured by taking the average length of five segments along radii from the centre of the left ventricle through the thinnest points of the free LV wall and the septal wall. All studies were performed by a blinded pathologist.

myocardial function = assay: Pressure volume relations in vivo (conductance catheter) after MI, PTH treatment; design: species or system C57BL/6 mice
Experimental: as §1, §2
For evaluation of pressure-volume relationships in vivo, surviving mice of the group 1) MI day 6 (n=6) and day 30 (n=6), 2) MI+PTH day 6 (n=6) and day 30 (n=6), and 3) sham (n=5) and control (n=6) animals were anesthetized with thiopental (100 mg/kg, i.p.), intubated and ventilated (MiniVent, HUGO SACHS, Freiburg, Germany). After catheterization via the right carotid artery an impedance-micromanometer catheter (Millar Instruments, Houston, Tex.) was introduced into the left ventricle. Raw conductance volumes were corrected for parallel conductance by the hypertonic saline dilution method. For absolute volume measurements, the catheter was calibrated with known volumes of heparin treated mouse blood. Pressure-volume signals were recorded at steady state and during transient preload reduction achieved by vena cava occlusion to obtain values independent of cardiac afterload^45. Data analyses were performed as previously described^44 using PVAN analysis software (HUGO SACHS, March, Germany).

CD31 positive vessels = assay: Neovascularization (CD31 positive vessels) in granulation tissue after MI, PTH treatment; format: in vivo, mice; conditions: infarct and borderzone after PTH treatment
Source text: C) Representative staining of CD31 positive vessels (left: 100×, right: 400×) in the granulation tissue harboring the borderzone of PTH treated (upper row) and saline treated animals (lower row). […] All sections nuclei (blue) were counterstained with hematoxyline. *p<0.05 saline vs. PTH.

rat PTH (1-34)
increase of G-CSF serum value (G-CSF; PTH treated mice, ELISA): 2.8 fold | serum level of G-CSF (G-CSF; day 6 of PTH stimulation): 6035.5 ± 1318.4 pg/mL | expression of VEGF-A and VEGF-R1 (VEGF-A and VEGF-R1): pronounced expression | anterior (free LV) wall thickness (infarcted left ventricle; day 6): 0.58 mm | cellular density in the granulation tissue (infarcted left ventricle; day 6): 3317±171 /mm^2 | LV-infarct size (area of necrosis and granulation tissue) (infarcted left ventricle): 37% | LV-infarct size (area of necrosis and granulation tissue) (infarcted left ventricle; listed as rPTH(1-34)): 37.3±4.9% | anterior (free LV) wall thickness (infarcted left ventricle; day 30): 0.22 mm | frequency of large LV-aneurysms (infarcted left ventricle; day 30, vs saline): lower frequency | infarct size (area of fibrosis) (infarcted left ventricle; day 30 after LAD occlusion): 23.3±4.6% and 23% | maximum LV pressure (myocardial function; PTH treatment of sham operated animals): 80.3±2.1 mmHg | arterial elastance (Ea) (myocardial function; day 6 after MI): 6.1±0.5 mmHg/μl and 6.0 mmHg/μl | cardiac output (myocardial function; day 6 after MI): 5537 µL/min | contractility (myocardial function; day 6 after MI): 4742±394 mmHg/sec | ejection fraction (EF) (myocardial function; day 6 after MI): 30% | stroke work (myocardial function; day 6 after MI): increased | diastolic function (Tau glantz) (myocardial function; day 6 after MI, vs saline): without significant changes | arterial elastance (Ea) (myocardial function; day 30 after MI): 7.2±0.5 mmHg/μl and 7.1 mmHg/μl | cardiac output (myocardial function; day 30 after MI): 3810±205 | diastolic relaxation (Tau Glantz) (myocardial function; day 30 after MI): 12.0 ± 0.8 ms | ejection fraction (EF) (myocardial function; day 30 after MI): 29.0±7.1% and 29% | enddiastolic volume (EDV) (myocardial function; day 30 after MI): 34.4±6.1 | stroke work (myocardial function; day 30 after MI): 382±59 mmHg×μl | angiogenesis (CD31 positive vessels): significantly increased

Reference: patent US8455435B2, “Remedies for ischemia” (Ludwig-Maximilians-Universitat Munchen, priority 2006, dated 2013)
